From PMC10005075, “Study on Absorption, Distribution and Excretion of a New Candidate Compound XYY-CP1106 against Alzheimer’s Disease in Rats by LC-MS/MS” (Molecules, 2023)
“Also recorded” adds a separate entry of the source. Where two headings read alike, the source gives them in different places.

Key:
[1] = tested on: scopolamine-induced AD mouse model; set-up: method as in PMID 31325784; settings: scopolamine-induced AD mice, intraperitoneal injection 10 mg/kg; cited from earlier work
Solubility in water = format: physicochemical
Procedure: A certain amount of XYY-CP1106 was weighed and dissolved completely in methanol. β-cyclodextrin aqueous solution was added to make it 50% methanol and 30% β-cyclodextrin solution. Then, it was placed in ultrasound for 4 h under an ultrasonic bath after vortex. Next, it was freeze-dried for 2 days; then, it was redissolved in PBS solution to the final concentration of 1.0 mg/mL.

[2] = set-up: method as in PMID 31325784; settings: chelating ability for Fe^3+; cited from earlier work
[3] = Tissue distribution study after oral administration; format: in vivo, Sprague-Dawley (SD) rats; settings: rats, oral 15 mg/kg
Procedure: The tissue sample was weighed and cut into pieces. Normal saline was added to brain tissue at the ration of 1:1 (g: mL) and other tissues at the ration of 1:3 (g: mL). The tissue homogenate was symmetrically placed in a tissue homogenizer to obtain tissue homogenate.
Amount of 0.5 mL of tissue homogenate and 1.5 mL of acetonitrile were added into a 5 mL centrifuge tube for protein precipitation by vortex, and 1 mL of vortex solution was added into a 1.5 mL centrifuge tube and centrifuged at 13,000 revolutions at for 10 min 4 °C. Then, 900 μL supernatant and 100 μL IS working solution were added into a 1.5 mL centrifuge tube to vortex for 30 s. It was centrifuged twice under the same conditions; then, the supernatant (5 μL) was injected into the LC-MS/MS system.
Thirty SD rats were randomly divided into 5 groups (n = 6), fed with freely available food and water and fasted with free access to water for 12 h before drug administration. All rats were weighed and recorded. The 5 groups of rats were given a single oral dose (15 mg/kg) of XYY-CP1106 (1.0 mg/mL) and sacrificed with cervical dislocation at 0.25, 1, 2, 4 and 8 h, respectively. The heart, liver, spleen, lungs, kidneys and brain of the rats were quickly removed, and the blood was carefully rinsed off with physiological saline (0.9%). The normal saline on the surface of all tissue samples was dried with filter paper then stored in a refrigerator at −80 °C.

MAO-B = tested on: MAO-B; set-up: method as in PMID 31325784; settings: cited from earlier work
[4] = Stability in plasma, tissues, feces and urine under storage conditions; set-up: species or system rat; settings: automatic sampler 24 h; three freeze–thaw cycles −20 °C to room temperature; −20 °C for 30 days
Procedure: The stability of XYY-CP1106 standard in plasma, tissues, feces and urine biological samples under different storage conditions was analyzed, including the stability of samples stored at room temperature for 24 h in an automatic sampler, the freeze–thaw stability after three cycles (−20 °C to room temperature was defined as a cycle), and −20 °C for the last 30 days. When the deviation from the standard value was within 15% (low concentration was within 20%), the sample was considered stable. The concentration of standard substance in plasma was 10 and 160 ng/mL. The standard concentration in tissues, feces and urine was 10 and 800 ng/mL.

[5] = Plasma pharmacokinetic study after oral and tail vein administration; format: in vivo, Sprague-Dawley (SD) rats; set-up: clearance: unit not given here; settings: rats; for AUC(0-t): read-out: AUC0–24
Procedure: Non-compartmental calculations were performed using the PK Solver plug-in (China Pharmaceutical University, Nanjing, China) to estimate the main pharmacokinetic parameters. All values were expressed as the mean ± standard deviation.
Amounts of 100 μL plasma, 100 μL IS working solution (1000 ng/mL), 100 μL aqueous solution containing 0.2% formic acid and 700 μL ice methanol for protein precipitation were successively added into the 1.5 mL centrifuge tube, and it was vortexed for 30 s. Then, it was centrifuged at 13,000 rpm for 10 min at 4 °C, and the upper clarifying solution was extracted and placed in a new 1.5 mL tube and was centrifuged again under the same conditions. Five microliters of the sample were measured and injected into the LC-MS/MS system for analysis.
For oral administration, six SD rats were fed with freely available food and water and fasted with free access to water for 12 h before drug administration. The rats in each group were weighed and recorded; then, the oral dose was 15 mg/kg. The average weight of rats was 200 ± 30 g. At 0.083, 0.25, 0.5, 0.75, 1, 2, 4, 6, 8, 12 and 24 h after oral administration, 0.3 mL of blood samples were collected from the suborbital vein and put into a 1.5 mL heparin sodium tube. The collected plasma sample was centrifuged at 4 °C for 10 min at 3500 revolutions, and 100 μL of supernatant was taken and stored at −20 °C for future use.
For tail vein injection, six SD rats were weighed and recorded; then, XYY-CP1106 (0.384 mg/mL, 1.92 mg/kg) filtered by a 0.22 µm filter membrane was administered via tail vein injection. An amount of 0.3 mL of blood samples were collected from the suborbital vein into heparin sodium tubes at 0.083, 0.25, 0.5, 0.75, 1, 2, 4, 6, 8, 12 and 24 h after caudal intravenous administration. The collected plasma samples were treated in the same way as oral administration.
The oral absolute bioavailability (F) in rats was calculated according to the following equation:F = (AUCoral(0–∞) × Doseiv)/(AUCiv(0–∞) × Doseoral) × 100%,(1)

[6] = Excretory study (urine and feces) after oral administration; format: in vivo; settings: rats
Procedure: After the collected feces were dried at room temperature, a pestle and mortar were used to uniformly crush the feces collected at each time slot. Then, 0.2 g of ground feces were accurately weighed into a 5.0 mL centrifuge tube, 4 mL of methanol solution was added and then it was put into the ultrasonic instrument for ultrasonic extraction for 4 h. Then, 100 μL of feces samples were added into a 1.5 mL centrifuge tube. Next, it was treated the same as the plasma samples.
Urine samples were collected and processed directly. An aliquot of 100 µL of urine sample was taken and processed in the same manner as the plasma samples.
Ten rats were fed with freely available food and water and fasted with free access to water for 12 h before drug administration. They were given a single dose of XYY-CP1106 (15 mg/kg, 1.0 mg/mL) and then put into metabolic cages. Feces and urine were collected at 0–4, 4–8, 8–12, 12–24, 24–36, 36–48, 48–60, 60–72, 72–84 and 84–96 time slots, respectively. The feces collected at each time slot were air-dried to record their weight and stored in a refrigerator at −20 °C before use. The urine volume was recorded at each time slot and stored in a refrigerator at −20 °C before use.

[7] = Sprague-Dawley, rat, plasma, iv, I.V (tail vein) 1.92 mg/kg, n = 6
[8] = Sprague-Dawley, rat, plasma, po, P.O 15 mg/kg, n = 6

concentration at 2 h ([3]; Sprague-Dawley, rat, brain, 2 h after administration): 501 ± 260 ng/g | stability in biological matrices [4]: stable | Tmax ([5]; Sprague-Dawley, rat, plasma, 15 mg/kg, oral administration, read-out: time to maximum plasma concentration (converted)): 0.75 h | AUC(0-inf) [5, 7]: 599 ± 31.8 ng·h/mL | Cmax [5, 7]: 691 ± 120 ng/mL | clearance [5, 7]: 0.0268 | half-life [5, 7]: 3.5 ± 2.24 h | AUC(0-t) [5, 7]: 540 ± 43.7 ng·h/mL | Tmax ([5]; Sprague-Dawley, rat, plasma, iv, I.V (tail vein) 1.92 mg/kg, n = 6, read-out: Tmax): 0.083 h | half-life ([5]; Sprague-Dawley, rat, plasma, oral, P.O 15 mg/kg, n = 6): 8.26 to 10.1 h | Tmax ([5]; Sprague-Dawley, rat, plasma, oral, P.O 15 mg/kg, n = 6, read-out: Tmax): 0.57 to 0.93 h | bioavailability ([5]; Sprague-Dawley, rat, plasma, po, P.O 15 mg/kg vs I.V 1.92 mg/kg, from AUC0–∞, read-out: absolute oral bioavailability (F)): 10.7 ± 1.72% | AUC(0-inf) [5, 8]: 503 ± 77.7 ng·h/mL | Cmax [5, 8]: 153 ± 15.9 ng/mL | half-life [5, 8]: 9.16 ± 0.9 h | AUC(0-t) [5, 8]: 428 ± 66.1 ng·h/mL | V ([5]; I.V (tail vein) 1.92 mg/kg, n = 6): 0.00403 ± 0.0018 L/kg | V ([5]; P.O 15 mg/kg, n = 6): 0.4017 ± 0.06959 L/kg | time of maximum excretion rate in feces ([6]; 15 mg/kg by gavage): 8 to 12 h | time of maximum excretion rate in urine ([6]; 15 mg/kg by gavage): 4 to 12 h | excretion through urine, % of the dose ([6]; 15 mg/kg by gavage, within 24 h): 0.01 ± 0.00% | excretion through feces, % of the dose ([6]; 15 mg/kg by gavage, within 72 h): 31.14 ± 0.05% | average cumulative excretion through feces ([6]; oral 15 mg/kg, prototype drug): 0.94 ± 0.14 mg
Compound: Cc1c(O)c(=O)ccn1Cc1cc2ccc(OCc3cccc(F)c3)cc2oc1=O [XYY-CP1106]
effect on behavioral and cognitive impairment (water maze) [1]: could significantly alleviate the behavioral and cognitive impairment of mice | water solubility (Solubility in water): low water solubility; also recorded: almost insoluble in water | pFe^3+ [2]: 18.04 | blood–brain barrier penetration ([3]; detected in brain tissue, 15 mg/kg): could pass through the blood–brain barrier; also recorded: could penetrate the blood–brain barrier; also recorded: penetrating the BBB | main tissues of distribution ([3]; heart, liver, spleen, lung, kidney, brain, 0.25-8 h): mainly distributed in the liver and kidneys | IC50 (MAO-B): 14.7 nM
